Laboratory results as given in the NIST ThermoML archive (doi:10.1021/je400951k).

C[C@H]1CC[C@@H]2C[C@H]1C2(C)C (racemic) [(1RS,2SR,5RS)-2,6,6-trimethylbicyclo[3.1.1]heptane]
Liquid, Closed cell (Static) method
Details	vapor or sublimation pressure [kPa]
330.27 K	2.04
338.5 K	3.03
344.71 K	4.015
349.8 K	4.98
357.77 K	7.015
360.94 K	8.015
366.78 K	10.04
373.45 K	13.04
379.03 K	16.05
385.72 K	20.04
392.24 K	25.05
397.94 K	30.04
407.54 K	40.03
415.01 K	50.03

CC(=O)O[C@@H]1C[C@H]2CC[C@]1(C)C2(C)C (relative stereo)
Liquid, Closed cell (Static) method
Details	vapor or sublimation pressure [kPa]
381.09 K	2.004
390.08 K	3.021
397.1 K	4.013
402.69 K	5.01
407.45 K	6.023
411.6 K	7.027
414.92 K	8.014
418.66 K	9.042
421.67 K	10.03
427.93 K	12.04
434.61 K	15.02
442.35 K	19.12
452.64 K	26.01
457.89 K	30.15
463.13 K	35
468.12 K	40.12
472.63 K	45.25

C=C(C)C1CC=C(C)CC1 (stereo unspecified) [1-methyl-4-(1-methylethenyl)cyclohexene]
Liquid, Closed cell (Static) method
Details	vapor or sublimation pressure [kPa]
346.96 K	3.01
353.19 K	4.013
358.22 K	5.008
362.25 K	6.002
366.08 K	7.018
369.31 K	8.018
372.54 K	9.043
375.27 K	10.02
379.93 K	12.04
386.12 K	15.04
394.56 K	20.01
401.29 K	25.04
407.1 K	30.09
416.21 K	39.91
420.21 K	44.8

C=C1C2CCC(C2)C1(C)C (stereo unspecified) [2,2-dimethyl-3-methylenebicyclo[2.2.1]heptane]
Details	vapor or sublimation pressure [kPa]
309.7 K, Metastable liquid, Closed cell (Static) method	1.007
322.72 K, Closed cell (Static) method, Liquid	2.026
331.06 K, Closed cell (Static) method, Liquid	3.053
337.27 K, Closed cell (Static) method, Liquid	4.056
342.04 K, Closed cell (Static) method, Liquid	5.043
346.21 K, Closed cell (Static) method, Liquid	6.007
350.07 K, Closed cell (Static) method, Liquid	7.068
353.23 K, Closed cell (Static) method, Liquid	8.029
355.98 K, Closed cell (Static) method, Liquid	9.003
358.83 K, Closed cell (Static) method, Liquid	10.07
365.69 K, Closed cell (Static) method, Liquid	13.05
369.58 K, Closed cell (Static) method, Liquid	15.06
378.51 K, Closed cell (Static) method, Liquid	20.12
384.98 K, Closed cell (Static) method, Liquid	25
390.65 K, Closed cell (Static) method, Liquid	29.95
399.95 K, Closed cell (Static) method, Liquid	40.04
407.61 K, Closed cell (Static) method, Liquid	50.02

C=CC(C)CCCC(C)(C)O (stereo unspecified) [2,6-dimethyl-7-octen-2-ol]
Liquid, Closed cell (Static) method
Details	vapor or sublimation pressure [kPa]
351.52 K	0.82
354.37 K	1.015
360.41 K	1.516
365.22 K	2.03
372.31 K	3.024
377.4 K	4.017
381.86 K	5.015
388.97 K	7.03
394.58 K	9.035
401.82 K	12.04
407.61 K	15.04
415.17 K	20.03
421.59 K	25.04

C=CC(C)CCC=C(C)C (stereo unspecified) [3,7-dimethyl-1,6-octadiene]
Liquid, Closed cell (Static) method
Details	vapor or sublimation pressure [kPa]
316.5 K	1.26
322.57 K	1.76
327.44 K	2.26
334.96 K	3.26
340.66 K	4.26
345.44 K	5.26
349.51 K	6.26
356.16 K	8.25
361.68 K	10.23
373.78 K	16.25
379.02 K	20.26
385.62 K	25.26
391.11 K	30.26

CCCCCCCCO [octan-1-ol]
Liquid, Closed cell (Static) method
Details	vapor or sublimation pressure [kPa]
358.05 K	1.088
363.99 K	1.527
368.73 K	2.016
381.98 K	4.073
393.36 K	7.08
401.09 K	10.04
410.79 K	15.04
418.15 K	20.03
429.75 K	30.2

O [water]
Liquid, Closed cell (Static) method
Details	vapor or sublimation pressure [kPa]
292.54 K	2.16
303.48 K	4.43
310.23 K	6.19
315.78 K	8.497
319.82 K	10.5
327.62 K	15.71
334.02 K	20.83
343.07 K	30.04
